Results: patent publication US7507792B2, “MDA-7 proteins and methods of use thereof” (The Trustees of Columbia University In The City of New York, priority 1993, dated 2009)

Legend:
Format in all cases: cell-based, human
HL-525 cells = test: OKM1 reactivity (immunofluorescence); conditions: TPA 3 nM, RA 1 μM or Vit D3 400 nM, percent OKM1 positive cells
Method: (§1) HL-60 cells were originally provided by Dr. R. C. Gallo (National Cancer Institute, Bethesda, Md.) (Collins et al., 1978; Huberman & Callaham, 1979). HL-60 cells designated HL-525 were derived by cloning HL-60 cells after subculturing 102 times in the presence of increasing concentrations (up to 3 μM) of TPA at 5- to 8-day intervals (Homma et al., 1986; Mitchell et al., 1986). […] Prior to the experiments described in this study, the HL-525 cells were subcultured more than 20 times in the absence of TPA. Cells were grown in 100-mm tissue culture dishes in RPMI 1640 medium supplemented with 20% fetal bovine serum, penicillin (100 units/ml) and streptomycin (100 μg/ml) (Grand Island Biological Co., NY) at 37° C. in an atmosphere of 5% CO2 in air in a humidified incubator. The 1,25-(OH)2D3(Vit D3) and TPA were dissolved in a final concentration of 0.01% DMSO, and all-trans retinoic acid (RA) was dissolved in 0.1% DMSO in culture medium. […] Control cultures were treated with DMSO at a final concentration of 0.1% in culture medium. For experiments designed to test the effect of DMSO on HL-60 and HL-525 cells, DMSO was added to tissue culture medium at a final concentration of 1%. Stock solutions of CHX (10 mg/ml) were prepared in culture medium. CHX was added at a final concentration of 10 μg/ml. To examine a requirement for protein synthesis on mda-6 gene expression, HL-60 or HL-525 cells were seeded into 150 mm Petri dishes (5×10^5 cells/ml) in 30 ml of medium. CHX was added to a final concentration of 10 μg/ml 15 min prior to the addition of TPA to 3 nM. Cells were harvested at various times after addition of TPA for subsequent RNA isolation and analysis.
(§2) Cell counts were determined by hemocytometer chamber counting. Immunofluorescence tests for reactivity with the OKM1 antibody (Ortho Pharmaceutical Corp., Raritan, N.J.) were performed as previously described (Murao et al., 1983).

HL-60 cells = test: OKM1 reactivity (immunofluorescence); conditions: TPA 3 nM, RA 1 μM or Vit D3 400 nM, percent OKM1 positive cells
Method: as §1, §2

mda-4 = mda-4 expression (Northern blotting); conditions: H0-1
Method: The mass excision of the library was performed using ExAssist helper phage as described above. The SOLR strain of Escherichia coli and cDNA phagemids were mixed at 37° C. for 15 min and plated onto LB plates containing ampicillin and IPTG/X-gal. White colonies were chosen at random, isolated and grown in LB medium. Plasmid minireps and restriction enzyme digestions were performed to confirm the presence of inserts. The inserts were isolated and used as robes for Northern blotting analysis (5,25). […] Radiolabeled probes were generated by random oligonucleotide priming (25). Prehybridization, hybridization, posthybridization washes, and autoradiography were performed as described (5,18,25).

[1] = system: MDA-6 (WAF1/CIP1/SDI1) protein; test: Immunoprecipitation of MDA-6 (WAF1/CIP1/SDI1) protein in HL-60 cells; conditions: TPA, DMSO (1%) or RA (1 μM), 12, 24, 48 and 72 h tested
Method: Immunoprecipitation analyses were performed as described previously (Duigou et al., 1991; Su et al. 1993). Logarithmically growing HL-60 cells were either untreated or treated for 12, 24, 48 or 72 h with TPA ([…]), RA (1 μM) or DMSO (1%) in 10-cm plates. Cultures were starved of methionine for 1 h at 37° C. in methionine-free medium, cells were concentrated by pelleting and labeled for 4 h at 37° C. in 1 ml of the same medium with 100 μCi of [^35S] (NEN; Express ^35S). After labeling, the cells were washed twice with ice-cold phosphate-buffered saline and lysed for 1 h on ice by the addition of RIPC (20 mM Tris-base, pH 7.5, 500 mM NaCl, 0.05% Nonidet P-40, 100 μg/ml phenylmethylsulfonyl fluoride and 0.02% sodium azide). The lysate was clarified by centrifugation in an Eppendorf microfuge at 10,000×g for 10 min at 4° C. Samples containing 4×10^6 counts were incubated with 2 μg of WAF1/CIP1 (C-19) (Santa Cruz Biotechnology) (or MDA-6 peptide-derived) rabbit polyclonal IgG or actin monoclonal antibody (Oncogene Sciences) with rocking at 4° C. for 24 h. The next day, 30 μl (packed volume) of protein G-agarose (Oncogene Sciences) was added to each tube, and incubation with rocking at 4° C. continued for another hour. The protein G pellets were then washed five times with 1 ml of ice-cold RIPC:phosphate-buffered saline (1:1, v/v). Thirty μl of sodium dodecyl sulfate-polyacrylamide gel electrophoresis buffer were added to the pellets, and the sample was heated at 87° C. for 3 min. The samples were loaded onto an 10% polyacrylamide gel and run overnight at 40 V. The gel contained Rainbow protein markers (Amersham) for sizing. Gels were fixed with 10% acetic acid plus 10% methanol for 30 min, incubated in DMSO for 30 min, incubated with 10% 2,5-diphenyloxazole in DMSO for 30 min, washed three times with cold water (10 min each), dried and exposed to film.

Row | Structure (SMILES) | OKM1 reactivity, Days of induction 4 (HL-525 cells) [%] | OKM1 reactivity, Days of induction 6 (HL-525 cells) [%] | OKM1 reactivity, Days of induction 2 (HL-60 cells) [%] | OKM1 reactivity, Days of induction 4 (HL-60 cells) [%] | OKM1 reactivity, Days of induction 6 (HL-60 cells) [%] | mda-4 expression (mda-4; 24 hours, doses of FIG. 19, phenyl butyrate 24 hours, 4 days or 7 days) | time of treatment at which MDA-6 protein is detected [1] [h] | mda-4 expression (mda-4; 96 hours, doses of FIG. 15 legend)
1 | CC1=C(/C=C/C(C)=C/C=C/C(C)=C/C(=O)O)C(C)(C)CCC1 [RA, trans-retinoic acid] | 10 | 13 | 49 | 76 | 77 | No or only a small change in expression | 12 | 
2 | CCCCCCCCCCCCCC(=O)O[C@@H]1[C@@H](C)[C@@]2(O)[C@@H](C=C(CO)C[C@]3(O)C(=O)C(C)=C[C@@H]23)[C@@H]2C(C)(C)[C@]12OC(C)=O [TPA, 12-O-tetradecanoyl-phorbol-13-acetate] | 8 | 4 | 55 | 81 | 95 |  | 12 | 
3 | C=C(C)[C@@]12O[C@@]3(c4ccccc4)O[C@@H]1[C@@H]1[C@@H]4O[C@]4(CO)[C@@H](O)[C@]4(O)C(=O)C(C)=C[C@H]4[C@@]1(O3)[C@H](C)[C@H]2OC(=O)/C=C/C=C/c1ccccc1 [MEZ, mezerein] |  |  |  |  |  |  |  | No or only a small change in expression
